Assay results as given in article PMC6694107, “Characterization and overproduction of cell-associated cholesterol oxidase ChoD from Streptomyces lavendulae YAKB-15” (Scientific Reports, 2019).

System: T1, ChoD
T1 construct: ORF 547 aa including TAT signal; FAD enzyme
Experiment: ABTS/peroxidase coupled H2O2 assay, […] nm, initial rates
Assay type: biochemical, Streptomyces lavendulae
Settings: pH 7 sodium-potassium phosphate, Triton X-100, ethanol (general assay); 8.4 nM enzyme, 4-168 µM cholesterol

Q: With `CC(C)CCC[C@@H](C)[C@H]1CC[C@H]2[C@@H]3CC=C4C[C@@H](O)CC[C@]4(C)[C@H]3CC[C@]12C` [cholesterol] as the compound, how does the Km read?
A: 15.9 µM
